Source: patent US8133687B2, “Labor biomarkers, methods comprising same, and methods targeting same” (The Trustees of the University of Pennsylvania, priority 2005, dated 2012)
Read-outs that look alike come from different tables or passages of the source. Values belong to the compound of their own block, whether it stands above or below them. Where no end group is shown, it is not given here.

Tested on: rat aorta-derived A7R5 vascular smooth muscle cells
Assay type: cell-based
Details: for effect on bradykinin response (cell area): added together with 5 nM bradykinin; for effect on cell area when administered without bradykinin: peptide alone; for effect on PGF2α-induced decrease in cell area: with PGF2α (0.56 nM PG in FIG. 10); for effect on oxytocin-induced decrease in cell area: with oxytocin (10 nM OT in FIG. 10)
Description: PA gels of controlled stiffness were coated with a nearly constant collagen level (5×10^2 ng/cm^2) as assessed by fluorescent collagen intensities. […] To assess the ability of peptides found in cervicovaginal fluid to activate smooth muscle cells, rat aorta-derived […] vascular smooth muscle cells ([…]; ATCC, Manassas, Va.) were plated onto polyacrylamide gel surfaces (34 kPa) with collagen type 1 (BD Biosciences, San Diego) and covalently pre-attached to the gel surface by sulpho-SANPAH (Pierce, Rockland, Ill.), providing a quantitative and reproducible uterotonics activity assay. Cells were permitted to adhere to the surface for 30 minutes, then were incubated at 37° C. for 4 hours with bradykinin (0-1 μM, Sigma-Aldrich, St. […] Data was fit to a hyperbolic expression using a least squared method, with the half-saturation constant (IC50) representing the intermediate set-point for the system.

[1] = agonist alone, A7R5 cells, 4 hours at 37° C., read-out: IC50 of dose-dependent decrease in cell area
[2] = A7R5 cells, listed as potentiation peptide (PP)

Compound: CC[C@H](C)[C@@H]1NC(=O)[C@H](Cc2ccc(O)cc2)NC(=O)[C@@H](N)CSSC[C@@H](C(=O)N2CCC[C@H]2C(=O)N[C@@H](CC(C)C)C(=O)NCC(N)=O)NC(=O)[C@H](CC(N)=O)NC(=O)[C@H](CCC(N)=O)NC1=O [Oxytocin, oxytocin, reference compound]
IC50 (4 h): 8 nM

IC50 (agonist alone, A7R5 cells, 4 hours at 37° C., listed as PGF2-α, read-out: IC50 of dose-dependent decrease in cell area): 0.56 nM
IC50 [1]: 1 nM
Compound: CCCCC[C@H](O)/C=C/[C@@H]1[C@@H](C/C=C\CCCC(=O)O)[C@@H](O)C[C@H]1O [PGF2α, reference compound]

EC50 (with half-saturation dose of bradykinin (5 nM), A7R5 cells, read-out: half-saturation effect of the peptide on the bradykinin response): 9350 nM
Compound: AAHLPAEFTPAVHASLDKF [2.022 kDa peptide, amino acids 110-128 of α-chain hemoglobin]
effect on bradykinin response (cell area) (A7R5 cells): augmented the bradykinin response
effect on bradykinin response (cell area) [2]: augmented the 5 nM BK response
effect on decrease in cell area elicited by maximal doses of bradykinin (bradykinin 1 μM, A7R5 cells): not affected
effect on cell area when administered without bradykinin (A7R5 cells): Neither the 2.022 kDa peptide nor the control peptide had an effect on cell area
effect on PGF2α-induced decrease in cell area (A7R5 cells): enhanced by sub-μM amounts
effect on PGF2α-induced decrease in cell area [2]: augmented the 0.56 nM PG response
effect on oxytocin-induced decrease in cell area (A7R5 cells): enhanced by sub-μM amounts
effect on oxytocin-induced decrease in cell area [2]: augmented the 10 nM OT response

Compound: KAHEFYLAAHPTDALFASP (KAHEFYLAAHPTDALFASP-NH2) [control peptide, same amino acids as the 2.022 kDa peptide, residues ordered randomly, reference compound]
effect on bradykinin response (cell area) (A7R5 cells): did not affect the bradykinin response
effect on cell area when administered without bradykinin (A7R5 cells): Neither the 2.022 kDa peptide nor the control peptide had an effect on cell area

Compound: RPPGFSPFR [Bradykinin, bradykinin, reference compound]
IC50 [1]: 5 nM
